Experimental data reported in patent US20240269139A1, “COMPOUNDS FOR TARGETED PROTEIN DEGRADATION OF KINASES” (DANA-FARBER CANCER INSTITUTE, INC., priority 2020, published 2024).
Read-outs that look alike come from different tables or passages of the source.

Tests used:
Format in all cases: cell-based
[1] = target: T1, protein kinases (human kinome) (Homo sapiens, UniProt P29323)
T1 sequence (P29323 19-1055): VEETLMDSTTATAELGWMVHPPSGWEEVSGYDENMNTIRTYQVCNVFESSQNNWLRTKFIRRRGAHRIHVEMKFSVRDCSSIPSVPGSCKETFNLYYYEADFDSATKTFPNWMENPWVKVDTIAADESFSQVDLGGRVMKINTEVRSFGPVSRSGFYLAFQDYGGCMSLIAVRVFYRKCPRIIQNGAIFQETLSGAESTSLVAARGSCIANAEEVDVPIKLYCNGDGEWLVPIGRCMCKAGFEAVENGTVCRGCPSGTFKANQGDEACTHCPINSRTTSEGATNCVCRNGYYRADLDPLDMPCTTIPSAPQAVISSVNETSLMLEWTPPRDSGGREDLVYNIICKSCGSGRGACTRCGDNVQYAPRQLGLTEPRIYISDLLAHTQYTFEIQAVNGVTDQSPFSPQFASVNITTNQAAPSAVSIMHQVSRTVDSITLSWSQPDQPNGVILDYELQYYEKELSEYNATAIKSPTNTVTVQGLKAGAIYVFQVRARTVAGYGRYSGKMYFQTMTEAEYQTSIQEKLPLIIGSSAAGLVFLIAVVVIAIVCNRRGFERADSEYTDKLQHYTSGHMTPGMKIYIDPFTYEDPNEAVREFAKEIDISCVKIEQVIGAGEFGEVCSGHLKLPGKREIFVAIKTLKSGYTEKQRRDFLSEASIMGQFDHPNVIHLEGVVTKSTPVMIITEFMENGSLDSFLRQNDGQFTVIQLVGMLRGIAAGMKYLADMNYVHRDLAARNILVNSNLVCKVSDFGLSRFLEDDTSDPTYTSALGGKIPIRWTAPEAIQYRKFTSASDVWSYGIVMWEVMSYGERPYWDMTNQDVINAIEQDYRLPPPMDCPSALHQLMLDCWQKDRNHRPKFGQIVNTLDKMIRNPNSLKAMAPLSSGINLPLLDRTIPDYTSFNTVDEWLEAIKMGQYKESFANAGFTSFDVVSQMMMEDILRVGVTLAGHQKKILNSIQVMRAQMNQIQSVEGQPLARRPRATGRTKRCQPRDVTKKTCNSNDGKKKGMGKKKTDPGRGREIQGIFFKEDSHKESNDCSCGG

[2] = target: T2, protein kinases (human kinome) (Homo sapiens, UniProt Q96S38); details: for logFC RPS6KC1 (Q96S38): direction of change down; for logFC: RPS6KC1 (Q96S38)
T2 sequence (Q96S38 1-1066): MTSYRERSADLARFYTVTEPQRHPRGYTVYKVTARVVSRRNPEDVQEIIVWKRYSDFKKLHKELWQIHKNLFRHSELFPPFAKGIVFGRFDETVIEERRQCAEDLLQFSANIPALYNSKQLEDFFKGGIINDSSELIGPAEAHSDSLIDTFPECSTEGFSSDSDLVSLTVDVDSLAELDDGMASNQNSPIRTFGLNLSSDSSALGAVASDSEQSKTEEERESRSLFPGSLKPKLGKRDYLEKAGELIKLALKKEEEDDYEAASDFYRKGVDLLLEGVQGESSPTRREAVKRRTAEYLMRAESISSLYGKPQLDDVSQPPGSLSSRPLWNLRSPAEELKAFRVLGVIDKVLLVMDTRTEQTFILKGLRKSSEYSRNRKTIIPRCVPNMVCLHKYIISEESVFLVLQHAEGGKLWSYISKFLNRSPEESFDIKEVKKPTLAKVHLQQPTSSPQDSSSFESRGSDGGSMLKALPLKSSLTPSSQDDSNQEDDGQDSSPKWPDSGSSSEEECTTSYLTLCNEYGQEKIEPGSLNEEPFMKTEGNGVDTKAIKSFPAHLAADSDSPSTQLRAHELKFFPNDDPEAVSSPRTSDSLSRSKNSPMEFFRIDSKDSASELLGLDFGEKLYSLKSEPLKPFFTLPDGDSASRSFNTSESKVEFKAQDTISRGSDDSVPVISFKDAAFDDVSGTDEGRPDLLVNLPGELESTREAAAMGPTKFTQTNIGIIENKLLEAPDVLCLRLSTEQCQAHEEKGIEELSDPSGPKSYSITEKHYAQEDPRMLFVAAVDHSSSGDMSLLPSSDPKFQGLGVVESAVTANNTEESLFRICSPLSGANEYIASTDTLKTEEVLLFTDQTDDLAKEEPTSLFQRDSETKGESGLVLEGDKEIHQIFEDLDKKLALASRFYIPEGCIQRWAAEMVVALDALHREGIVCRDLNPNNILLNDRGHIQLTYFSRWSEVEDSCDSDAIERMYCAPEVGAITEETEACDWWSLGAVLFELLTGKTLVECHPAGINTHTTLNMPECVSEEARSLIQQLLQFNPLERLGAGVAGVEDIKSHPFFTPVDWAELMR

[3] = target: protein kinases (human kinome) (Homo sapiens, UniProt P51957); details: experiment wp146
Sequence of protein kinases (human kinome) (Homo sapiens, UniProt P51957) (P51957 whole entry): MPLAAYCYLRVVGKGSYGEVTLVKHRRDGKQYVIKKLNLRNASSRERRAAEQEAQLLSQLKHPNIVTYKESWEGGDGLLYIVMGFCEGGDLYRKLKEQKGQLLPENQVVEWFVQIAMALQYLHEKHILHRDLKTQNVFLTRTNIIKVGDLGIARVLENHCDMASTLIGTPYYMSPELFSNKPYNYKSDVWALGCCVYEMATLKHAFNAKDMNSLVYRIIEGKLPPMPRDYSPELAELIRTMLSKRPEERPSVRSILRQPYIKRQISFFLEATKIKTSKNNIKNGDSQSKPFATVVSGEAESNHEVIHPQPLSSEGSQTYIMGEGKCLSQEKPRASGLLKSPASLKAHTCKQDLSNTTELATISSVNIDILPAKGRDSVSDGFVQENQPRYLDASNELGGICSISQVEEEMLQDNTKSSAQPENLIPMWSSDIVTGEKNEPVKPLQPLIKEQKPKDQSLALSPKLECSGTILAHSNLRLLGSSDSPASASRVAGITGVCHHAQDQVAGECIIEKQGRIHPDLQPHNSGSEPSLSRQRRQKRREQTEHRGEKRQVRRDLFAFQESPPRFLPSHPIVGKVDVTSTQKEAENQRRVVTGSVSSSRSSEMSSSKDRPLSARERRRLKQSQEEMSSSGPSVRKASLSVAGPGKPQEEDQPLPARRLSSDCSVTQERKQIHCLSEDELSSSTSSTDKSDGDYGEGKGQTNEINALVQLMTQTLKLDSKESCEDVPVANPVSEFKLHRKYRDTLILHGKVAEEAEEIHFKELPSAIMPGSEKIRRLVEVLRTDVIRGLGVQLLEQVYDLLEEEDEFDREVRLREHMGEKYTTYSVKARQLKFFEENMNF

Structure (SMILES)	logFC ([1]; EPHB2 (P29323), experiment wp107)	logFC of EPHB2 (P29323) ([1]; Experiment wp107)	logFC RPS6KC1 (Q96S38) ([2]; Experiment wp105)	logFC ([2]; experiment wp105)	logFC ([2]; experiment wp107)	logFC RPS6KC1 (Q96S38) ([2]; experiment wp107)	logFC NEK4 (P51957) ([3]; direction of change down)	logFC NEK4 ([3]; protein NEK4 (P51957), down)
CC(C)S(=O)(=O)c1ccccc1Nc1nc(Nc2ccc(N3CCN(CCOCCNC(=O)CNc4cccc5c4C(=O)N(C4CCC(=O)NC4=O)C5=O)CC3)cc2)ncc1Cl (centres unmarked) [SK.3.91]	−0.6293	−0.6293	−0.3327	−0.3327	−0.3623	−0.3623	–	–
Cc1cc(Nc2ncc(Br)c(Nc3cccc(F)c3C(N)=O)n2)ccc1S(=O)(=O)NCCOCCOCCOCCOCCNc1cccc2c1C(=O)N(C1CCC(=O)NC1=O)C2=O (centres unmarked) [TMX.02.174]	–	–	–	–	–	–	−0.9508	−0.9508
